Source: patent US20210338647A1, “Combination of Acetylcholinesterase Inhibitor and 5-HT4 Receptor Agonist As Neuroprotective Agent In the Treatment of Neurodegenerative Diseases” (UNIVERSITE DE CAEN NORMANDIE, priority 2018, published 2021)

Experiments:
5XFAD mice [1] = assay: Novel object recognition test in chronically treated 5XFAD mice; assay type: in vivo, mouse; conditions: 5XFAD females; 1 mg/kg twice a week for 3 months; 24 h interval between training and test
Experimental: (§1) 5XFAD mice received chronic treatments with drugs or vehicle according to 2 different protocols. In each experiment, drugs or vehicle solution were administered i.p. twice a week (1 mg/kg). In “Protocol 1”, mice (n=6-7 mice per group) were treated with compounds for two months, from 2 to 4 months of age. In “Protocol 2”, mice (n=7) were treated with compounds for three months, from 1 month to 4 months of age. At the end of each protocol, mice were anesthetized with a mixture of 100 mg/kg ketamine and 10 mg/kg xylazine in saline solution and perfused transcardially with PBS. Brains were quickly isolated on ice, the olfactory bulbs and cerebellum removed and the two hemispheres divided. One hemisphere was frozen on dry ice and stored at −80° C. for biochemical analysis, while the other was post-fixed in 4% PFA for immunohistochemistry (IHC).
(§2) 28 female 5XFAD mice (C57BL/6J genetic background) were used in this study. Mice received vehicle or compounds (1 mg/kg) i.p., twice a week for three months, from 1 to 4 months of age.

5XFAD mice [2] = assay: Aβ42 concentration in cerebrospinal fluid of chronically treated 5XFAD mice; assay type: in vivo, mouse; conditions: 1 mg/kg twice a week for 3 months, versus controls
Experimental: as §1, §2

In the case of CCCCN1CCC(CCC(=O)c2cc(Cl)c(N)cc2OC)CC1 [RS67333, 1-(4-amino-5-chloro-2-methoxy-phenyl)-3-(1-butyl-4-piperidinyl)-1-propanone], the “Recognition memory: time exploring novel versus familiar object (NOR test)” value (5XFAD mice [1]) is reported as “reverses cognitive impairment” and the “Aβ42 concentration in cerebrospinal fluid (CSF)” value (5XFAD mice [2]) is reported as “not significantly different compared to controls”.
